From paper PMC12567082, “Silver(I) Complexes Bearing S-Alkyl Thiosalicylic Acid Derivatives: DNA/BSA Binding and Antitumor Activity In Vitro and In Vivo” (Pharmaceutics, 2025)

Key:
4T1 mammary tumors = assay: Breast cancer development in vivo (orthotopic 4T1); design: species or system BALB/C female mice; settings: five single doses every third day, after day 18
Method: (§1) Ethics Committee of the Faculty of Medical Sciences of the University of Kragujevac, Serbia, approved all experiments (01-5301/11). ARRIVE guidelines and EU Directive 2010/63/EU for animal experiments were followed. Experimental animals, BALB/C female mice (8–10 weeks old), were housed under standard conditions (temperature-controlled environment, a 12 h light–dark cycle, fed ad libitum, and observed daily) throughout whole duration of experiment. Animals were inoculated with 4T1 cells (3 × 10^4) into the fourth mammary fat pad as previously described. Animals were randomly assigned to experimental or control groups, and after palpable tumors were detected, the pharmacological treatments were started. Female BALB/C mice intraperitoneally received either C3 (3 mg/kg), C3 (6 mg/kg), CDDP (6 mg/kg), or vehicle in distilled water with 0.05% DMSO (Sigma-Aldrich, St. Louis, MO, USA) (untreated group) in five single doses every third day (8 animals per group). Using electronic calipers (Moore and Wright, Sheffield, UK), the sizes of primary 4T1 mammary tumors were morphometrically evaluated. On the 30th day of experiment, animals were sacrificed, blood was collected (for determination of serum levels of ALT, AST, urea, and creatinine), and tissue sections (liver and kidney) were stained with H&E for further analysis. Liver or kidney sections were analyzed by two observers, and the injury levels were determined as previously reported.

BALB/C female mice = assay: In vivo toxicity (serum biochemistry, liver and kidney histology); settings: day 30
Method: as §1

4T1 cells [1] = assay: Cell cycle distribution; assay type: cell-based, mouse; settings: 0.5 µM, 24 h
Method: After reaching optimal confluency, 4T1 cells were allowed to grow in the presence of 0.5 µM of C3 or DMEM only (control 4T1 cells) for next 24 h. According to manufacturer’s recommendation, cells were stained with Vybrant® DyeCycle^TM Ruby stain (Thermo Fisher Scientific, Waltham, MA, USA) in order to perform cell cycle analysis. The analysis was carried out on FACSCalibur Flow Cytometer (BD Biosciences, San Jose, CA, USA), and data were analyzed using FlowJo software (version 10.7.2; Tree Star Inc. Ashland, OR, USA).

4T1 cells [2] = assay: Scratch assay; assay type: cell-based, mouse; settings: 0.5 µM, after 12 and 24 h, vs untreated
Method: In order to determine migratory capacity of C3-treated 4T1 cells, scratch assay was performed as previously described. Once 4T1 cells formed a confluent monolayer, an injury was made, and first representative images were taken immediately. Further 4T1 cells were exposed to C3 (0.5 µM) or DMEM only (untreated cells), and observation under inverted optical microscope (Olympus, Tokyo, Japan) was made after 4 h, 12 h, and 24 h. Scratch width was quantified by ImageJ (version 1.54.0 NIH, Madison, WI, USA).

[3] = test system: mouse mesenchymal stem cells (mMSC); assay: MTT assay mMSC; assay type: cell-based; settings: 48 h
Method: Mouse breast cancer (4T1), human breast cancer (MDA-MB-468), mouse colon cancer (CT26), human colon cancer (HCT-116), mouse lung cancer (LLC1), human lung cancer (A549), mouse mesenchymal stem cells (mMSC), and human fibroblast cell lines (MRC-5) were used in this study and were consistently cultured in complete Dulbecco’s Modified Eagle Medium (DMEM) (Sigma-Aldrich, St. Louis, MO, USA) in incubator (5% CO2) under standard conditions. Complete DMEM was Dulbecco’s Modified Eagle Medium supplemented with 10% fetal bovine serum (FBS), 1 mmol/L penicillin–streptomycin, 1 mmol/L mixed nonessential amino acids, and 2 mmol/L L-glutamine (Sigma-Aldrich, St. Louis, MO, USA). All cancer cell lines and MRC-5 cell line were obtained from American Type Culture Collection (ATCC, Manassas, VA, USA), but mMSC was manufactured by Gibco (Middlesex County, MA, USA).
In 96-well microplates, we seeded cancer and non-cancer cells, more exactly 5 × 10^3 cells per well in 100 μL of complete DMEM (Sigma-Aldrich, St. Louis, MO, USA). […] Tested concentration range for all metal-based substances was 3.9–500 μM. After incubation with MTT solution (5 mg/mL; pH 7.2) for 4 h, optical density was determined using Zenyth 3100 microplate multimode detector (Salzburg, Austria). All experiments were performed three times, each in triplicate, and the IC50 values as well as selectivity indexes (IC50 for mMSC or MRC-5/IC50 for mouse or human cancer cells) were calculated.

CT-DNA = assay: UV-Vis absorption titration with CT-DNA; assay type: binding, calf; settings: ΔG = −RT lnKb
Method: All DNA-binding studies were conducted in 0.01 M phosphate-buffered saline (PBS, pH 7.40) at 25 °C. […] To eliminate absorbance from CT-DNA, identical amounts of DNA were added to both the test and reference solutions prior to spectral recording.
Intrinsic binding constants (Kb) were calculated using the equation to determine the DNA-binding affinities of the complexes (1):[DNA]/(εa − εf) = [DNA]/(εb − εf) + 1 [Kb(εb − εf)](1)
[DNA] represents the concentration of DNA; apparent extinction coefficient, εa, was calculated as the ratio of the observed absorbance to the concentration of the complex (Aobs/[complex]); and εb and εf correspond to the extinction coefficients of the complex in the fully bound and free forms, respectively. Kb was determined from the ratio of the slope to the intercept obtained from the corresponding linear plots.

BSA = target: T1, BSA (Bos taurus, UniProt P02769); assay: BSA tryptophan fluorescence quenching; assay type: binding, bovine
T1 construct: purchased Sigma-Aldrich
Method: The protein binding study was carried out using tryptophan fluorescence quenching experiments with BSA. […] Fluorescence emission spectra were recorded between 300 and 500 nm, with excitation at 295 nm.
The quenching constant Ksv was determined based on the Stern–Volmer relationship, as described by Equation (3):I0/I = 1 + kqτ0[Q] = 1 + Ksv[Q](3)
In this equation, I0 and I refer to the fluorescence intensities of BSA measured without and with the quencher (complex), τ0 represents the average fluorescence lifetime of free BSA (∼10^−8 s), and [Q] indicates the quencher concentration.
Parameters such as association binding constant (K) and the number of binding sites per albumin (n) were obtained from Scatchard Equation (4):(ΔI/I0)/[Q] = nK − KΔI/I0(4)
To minimize inner filter, both intensities of fluorescence originating from excitation and emission light absorption and re-absorption were corrected by employing Equation (5); Icor and Iobs are the corrected and observed fluorescence intensities, respectively, and Aex and Aem represent the absorbance of the metal complex at the excitation and emission wavelengths, respectively.Icor = Iobs · […]^(Aex + Aem)/2(5)

T1 sequence (P02769 25-607): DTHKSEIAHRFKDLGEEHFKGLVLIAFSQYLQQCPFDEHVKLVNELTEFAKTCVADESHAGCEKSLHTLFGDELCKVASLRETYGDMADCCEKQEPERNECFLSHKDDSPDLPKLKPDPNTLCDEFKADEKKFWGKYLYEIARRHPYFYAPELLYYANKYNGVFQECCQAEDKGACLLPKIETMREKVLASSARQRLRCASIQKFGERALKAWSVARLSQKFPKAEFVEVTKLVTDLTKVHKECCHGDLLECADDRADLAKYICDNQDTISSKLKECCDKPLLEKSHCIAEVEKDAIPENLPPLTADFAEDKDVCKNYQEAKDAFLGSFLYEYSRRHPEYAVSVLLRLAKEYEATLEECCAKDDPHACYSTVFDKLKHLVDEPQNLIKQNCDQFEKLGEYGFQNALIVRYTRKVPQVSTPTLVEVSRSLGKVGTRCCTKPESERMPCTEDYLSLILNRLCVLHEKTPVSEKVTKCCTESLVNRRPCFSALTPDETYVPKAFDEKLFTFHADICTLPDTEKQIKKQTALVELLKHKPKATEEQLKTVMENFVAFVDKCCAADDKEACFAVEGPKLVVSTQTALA

`CCCSc1ccccc1C(=O)[O][Ag].CCCSc1ccccc1C(=O)[O][Ag]` [C3, [Ag2(S-propyl-thiosal)2]] was tested, and the “tumor growth compared to the untreated group” value (4T1 mammary tumors; 3 mg/kg i.p.) was “significantly slower”, the “tumor growth compared to the untreated group” value (4T1 mammary tumors; 6 mg/kg i.p.) was “significantly slower” and the “kidney injury scores compared to CDDP-treated animals” value (BALB/C female mice; C3 3 and 6 mg/kg vs CDDP 6 mg/kg) was “significantly lower”. The “liver injury histological score (Knodel score) vs untreated animals” value (BALB/C female mice; C3 3 and 6 mg/kg, H&E) was “did not reveal a significant difference”, the “percentage of 4T1 cells in G0/G1 phase” value (4T1 cells [1]) was “significantly increased” and the “percentage of 4T1 cells in S phase” value (4T1 cells [1]) was “decreased”. For the same compound, the “migration ability of 4T1 cells” value (4T1 cells [2]) was “significantly reduced”, the IC50 [3] was 4.22 ± 0.33 µM and the “ΔG (Gibbs free energy)” value (CT-DNA) was -30.5 kJ/mol. For the same compound, the “kq (quenching rate constant)” value (BSA; BSA 2 µM) was “(9.6 ± 0.1) × 10^12 M^−1 s^−1”, the “Ksv (Stern–Volmer constant)” value (BSA; BSA 2 µM, λex 295 nm) was “(9.6 ± 0.1) × 10^4 M^−1” and the “K (binding constant)” value (BSA; Scatchard equation) was “(1.1 ± 0.1) × 10^5 M^−1”. The “n (number of binding sites)” value (BSA; Scatchard equation) was 1.1.
